Measured values taken from patent US11753407B2, “Compounds for treating spinal muscular atrophy” (PTC Therapeutics, Inc., priority 2012, dated 2023).

What was measured:
[1] = system: SMN2 minigene mRNA (SMN2-A minigene) in HEK293H cells; assay: SMN2 minigene mRNA splicing RT-qPCR assay in cultured cells; type: cell-based, human; conditions: Homo sapiens, HEK293-H; concentration increasing full length SMN2 mRNA 1.5-fold relative to vehicle-treated cells; HEK293H cells with SMN2-A minigene, 24 hours, 7-point concentration data; read-out: EC1.5x for production of full length SMN2 mRNA
How it was run: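 EC1.5× = concentration raising full-length SMN2 minigene mRNA 1.5-fold over vehicle, from 7-point curves in duplicate. Stably transfected HEK293H cells exposed 24 h at 37 °C; lysates assayed by multiplex RT-qPCR, minigene FL signal normalized to GAPDH via modified ΔΔCt.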

[2] = system: Smn protein in SMA patient fibroblast cells (GM03813); assay: Smn protein assay in cultured cells (SMN HTRF); type: cell-based, human; conditions: SMA patient fibroblast cells, 48 hours; for EC1.5x for Smn protein expression: 7-point concentration curve, SMN HTRF, concentration producing 1.5 times Smn protein vs DMSO vehicle control; for maximum fold (Fold) increase of Smn protein: 7-point concentration data, fold relative to vehicle control
How it was run: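 Smn protein quantified by HTRF with anti-SMN d2/kryptate pair, 665/620 nm ratio blank-corrected, in RIPA lysates of GM03813 fibroblasts after 48 h compound exposure (7 concentrations, 3.16-fold steps, triplicates). Values: concentration producing 1.5× vehicle Smn level, and maximal fold increase.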

SMILES	EC (1.5-fold increase) [1] [µM]	melting point [°C]	EC1.5x for Smn protein expression [2]	maximum fold (Fold) increase of Smn protein [2]
CCc1nc(C)cn2nc(-c3cc(=O)n4cc(C5CCN(C(CO)CO)CC5)ccc4n3)cc12 [Cpd 694, 7-[1-(1,3-dihydroxypropan-2-yl)piperidin-4-yl]-2-(4-ethyl-6-methylpyrazolo[1,5-a]pyrazin-2-yl)-4H-pyrido[1,2-a]pyrimidin-4-one]	< 0.1	228 to 230	**** (an EC1.5x≤0.3 μM is indicated by four stars (****))	***** (a fold increase >1.65 is indicated by five stars (*****))
Cc1cn2cc(-c3cc(=O)n4cc(N5CCNCC5)ccc4n3)cc(C3CC3)c2n1 [Cpd 714, 2-(8-cyclopropyl-2-methylimidazo[1,2-a]pyridin-6-yl)-7-(piperazin-1-yl)-4H-pyrido[1,2-a]pyrimidin-4-one]	< 0.1	274 to 277	**** (an EC1.5x≤0.3 μM is indicated by four stars (****))	***** (a fold increase >1.65 is indicated by five stars (*****))
Cc1cn2nc(-c3cc(=O)n4cc(N5CC[C@@H](CN)C5)ccc4n3)cc2c(C)n1 [Cpd 764, 7-[(3S)-3-(aminomethyl)pyrrolidin-1-yl]-2-(4,6-dimethylpyrazolo[1,5-a]pyrazin-2-yl)-4H-pyrido[1,2-a]pyrimidin-4-one]	1 to 3	244 to 246	* (An EC1.5× for Smn protein expression between >3 μM and ≤10 μM is indicated by one star (*))	*** (a fold increase between >1.35 and ≤1.5 is indicated by three stars (***))
Cc1cn2nc(-c3cc(=O)n4cc(CCCN(C)C)ccc4n3)cc2c(C)n1 [Cpd 769, 7-[3-(dimethylamino)propyl]-2-(4,6-dimethylpyrazolo[1,5-a]pyrazin-2-yl)-4H-pyrido[1,2-a]pyrimidin-4-one]	0.1 to 0.3	136 to 138	*** (an EC1.5× between >0.3 μM and ≤1 μM is indicated by three stars (***))	***** (a fold increase >1.65 is indicated by five stars (*****))
Cc1cn2nc(-c3cc(=O)n4cc(C5=C[C@H](C)N[C@@H](C)C5)ccc4n3)cc2c(C)n1 [Cpd 798, 2-(4,6-dimethylpyrazolo[1,5-a]pyrazin-2-yl)-7-[(2S,6S)-2,6-dimethyl-1,2,3,6-tetrahydropyridin-4-yl]-4H-pyrido[1,2-a]pyrimidin-4-one]	< 0.1	228 to 231	**** (an EC1.5x≤0.3 μM is indicated by four stars (****))	***** (a fold increase >1.65 is indicated by five stars (*****))
